PubChem BioAssay AID504944 (Broad Institute, 2011)
The source made the active and inactive calls. No rule for the calls is given here.

System: HeLa cytotoxicity, plate reader, 48 h
Assay: HeLa cell cytotoxicity, dose response, cytotoxicity control, 48 h, plate reader, cherry-picks, set 2 (AID 504944)
Conditions: not given
Compound `CO/N=C/c1cn(-c2ccc(Cl)cc2)nn1` has an AC50 of 22.3 µM. With `Cc1ccc2nc(-c3ccc4c(c3)OCCO4)cn2c1` the AC50 was 22.3 µM. In the case of `Cc1cc(NC(=O)c2cc([N+](=O)[O-])ccc2Cl)no1`, the AC50 is reported as 29.1 µM. In the case of `O=CC1=C(c2ccccc2)Oc2ccccc2O1`, the AC50 is reported as 20.6 µM. In the case of `O=C(Nc1ncc([N+](=O)[O-])s1)c1cccc([N+](=O)[O-])c1`, the AC50 is reported as 14.3 µM. With `N#C/C(=C/c1ccco1)c1nc2ccccc2s1` the AC50 was 24.4 µM. In the case of `COC(=O)c1ccc(/C=C(\C#N)c2ccccn2)cc1`, the AC50 is reported as 29 µM. In the case of `CCOC(=O)/C=C(\C)Sc1cc(=O)oc2ccccc12`, the AC50 is reported as 23.9 µM.

System: not listed separately
Assay: as above
Conditions: HeLa cytotoxicity, plate reader, 48 h; at 13.5 µM (top of the series)
For `COc1ccc(C2=C(C=O)Cc3ccccc3O2)cc1`, the activity change, negative = toxicity was 0.173% (inactive).

Same assay, conditions: HeLa cytotoxicity, plate reader, 48 h; at 38 µM (top of the series)
With `N#CC(c1ccc(Cl)cc1)c1ncc(C(F)(F)F)cc1Cl` (centres undefined) the activity change, negative = toxicity was -15% (inactive). With `COc1ccc(/C(C#N)=C/c2cccnc2)cc1` the activity change, negative = toxicity was -8.3% (inactive). For `Nc1ccc(OCc2ccccc2)cc1[N+](=O)[O-]`, the activity change, negative = toxicity was -5.72% (inactive). With `O=C(c1cccc([N+](=O)[O-])c1)N1CC2C3C=CC(C3)C2C1` (centres undefined) the activity change, negative = toxicity was -2.29% (inactive). With `Cc1cc(NC(=O)c2c(F)c(F)c(F)c(F)c2F)no1` the activity change, negative = toxicity was -10.1% (inactive). With `O=CN(c1ccccc1)c1ccc2ccccc2c1` the activity change, negative = toxicity was -5.5% (inactive). For `O=C(NC1CCCCCCC1)c1cccc(Cl)c1`, the activity change, negative = toxicity was -22.5% (inactive). For `COc1ccc(C(C#N)c2ccc(Cl)nn2)cc1` (centres undefined), the activity change, negative = toxicity was 8.42% (inactive). In the case of `CC(C)(C)NC(=O)c1cc(Cl)ccc1[N+](=O)[O-]`, the activity change, negative = toxicity is reported as -2.21% (inactive). With `Clc1ccc2scc(CN3CCCC3)c2c1` the activity change, negative = toxicity was -10.3% (inactive). For `N#CC1C(C#N)C2CCC1C1C2N1c1ccccc1` (centres undefined), the activity change, negative = toxicity was -9.52% (inactive). In the case of `N#CC(c1ccc(Cl)nn1)c1ccccc1Cl` (centres undefined), the activity change, negative = toxicity is reported as -3.51% (inactive). In the case of `COc1ccc(N=C(C)C2=C(O)CSC2=O)cc1`, the activity change, negative = toxicity is reported as 5.59% (inactive). With `O=C1C2C(C(=O)N1Cc1ccco1)C1C=CC2C12CC2` (centres undefined) the activity change, negative = toxicity was -4.39% (inactive). For `N#CC(c1cccc(Cl)c1)c1ncc(C(F)(F)F)cc1Cl` (centres undefined), the activity change, negative = toxicity was -12.5% (inactive). With `CCOC(=O)c1cc2c(s1)-c1c(C)cccc1OC2` the activity change, negative = toxicity was -10.8% (inactive). In the case of `CSC1=N/C(=C\C=C\c2cccs2)C(=O)S1`, the activity change, negative = toxicity is reported as -8.63% (inactive). For `O=C(NC1CCCC1)c1cc(Cl)ccc1[N+](=O)[O-]`, the activity change, negative = toxicity was -2.55% (inactive). In the case of `CCOc1ccc(CNC2CCCc3ccccc32)cc1` (centres undefined), the activity change, negative = toxicity is reported as -11.3% (inactive). With `O=[N+]([O-])c1ccc(N2CCCCC2)nc1` the activity change, negative = toxicity was -0.44% (inactive). With `N#CC(c1ccc(Cl)nn1)c1c(F)cccc1Cl` (centres undefined) the activity change, negative = toxicity was -4.99% (inactive). With `N#CC(Sc1ccccn1)c1ccc(Cl)cc1` (centres undefined) the activity change, negative = toxicity was -11% (inactive). With `Cc1ccc(C)c(S(=O)(=O)NC2CCSC2=O)c1` (centres undefined) the activity change, negative = toxicity was -5.62% (inactive). For `CCOC(=O)N1CCN(c2ccc(Cl)cc2)CC1`, the activity change, negative = toxicity was 5.84% (inactive). With `COC(=O)c1cc(-c2ccc(OC)cc2)on1` the activity change, negative = toxicity was 4.16% (inactive). With `Cc1ccc(S(=O)c2ccc(C)cc2)cc1` the activity change, negative = toxicity was -9.53% (inactive). In the case of `COC(=O)c1cc(-c2ccc(Br)cc2)on1`, the activity change, negative = toxicity is reported as -9.19% (inactive). In the case of `O=C1N[C@@H](Cc2ccccc2)[C@@H](c2ccco2)O1`, the activity change, negative = toxicity is reported as -3.87% (inactive). With `N#CC(c1ccc(Cl)cc1)c1cccc(Cl)n1` (centres undefined) the activity change, negative = toxicity was -6.14% (inactive). For `CCC(C)NS(=O)(=O)c1ccc(OC)c(Cl)c1Cl` (centres undefined), the activity change, negative = toxicity was -10.1% (inactive). In the case of `CCOC1=CC(=O)OC(c2ccccc2)C1` (centres undefined), the activity change, negative = toxicity is reported as -12.2% (inactive). In the case of `CCOc1ccc(-n2cccc2C=O)cc1`, the activity change, negative = toxicity is reported as -8.05% (inactive). In the case of `Cn1cccc1C(C#N)c1cccc(F)c1C#N` (centres undefined), the activity change, negative = toxicity is reported as -11.4% (inactive). For `COC(=O)c1ccc(OC(=O)c2ccco2)cc1`, the activity change, negative = toxicity was -11.8% (inactive). With `Clc1cccc(CNCCCSc2ncccn2)c1` the activity change, negative = toxicity was -1.31% (inactive). In the case of `Cc1cc(NC(=O)Nc2ccccc2[N+](=O)[O-])no1`, the activity change, negative = toxicity is reported as -12.9% (inactive). For `CCOC(=O)c1ccc(-c2ccc(C=O)o2)cc1`, the activity change, negative = toxicity was 0.584% (inactive). In the case of `N#CC(c1ccccc1)c1cccc(Cl)n1` (centres undefined), the activity change, negative = toxicity is reported as 1.47% (inactive). With `CCOC(=O)c1ccc(N2Cc3ccccc3C2=N)cc1` the activity change, negative = toxicity was -10.6% (inactive). In the case of `Cc1cc(S(=O)(=O)NCC2CC2)c(Cl)cc1Cl`, the activity change, negative = toxicity is reported as -4.01% (inactive). For `O=C1C2C3C=CC(C4CC34)C2C(=O)N1Cc1ccco1` (centres undefined), the activity change, negative = toxicity was -2.48% (inactive). In the case of `O=C(NC1CCS(=O)(=O)C1)c1cccc(Br)c1` (centres undefined), the activity change, negative = toxicity is reported as -1.62% (inactive). With `N#CN(Cc1ccccc1)Cc1ccccc1` the activity change, negative = toxicity was 2.47% (inactive). For `N#Cc1cc(-c2ccccc2)cnc1Cl`, the activity change, negative = toxicity was -4.08% (inactive). For `OC(c1cccc(Cl)c1)c1nccc2ccccc12` (centres undefined), the activity change, negative = toxicity was -10.8% (inactive). In the case of `O=C1C=C(c2cccc(Cl)c2)C[C@@H](c2ccc(F)cc2)C1`, the activity change, negative = toxicity is reported as -19.4% (inactive). For `CCNC(=O)COc1ccc2ccccc2c1`, the activity change, negative = toxicity was -6.43% (inactive). With `N#CCn1c(C2CCCCC2)nc2ccccc2c1=O` the activity change, negative = toxicity was 0.099% (inactive). In the case of `CCCNS(=O)(=O)c1ccc(OC)c(Cl)c1Cl`, the activity change, negative = toxicity is reported as -2.35% (inactive). In the case of `O=[N+]([O-])c1ccc(N2CCCCC2)cc1`, the activity change, negative = toxicity is reported as -9.13% (inactive). In the case of `C=CCOC(=O)c1ccc(-n2cnc(C)n2)nc1`, the activity change, negative = toxicity is reported as -2.17% (inactive). With `CCCCCC1CC(COc2ccccc2)OC1=O` (centres undefined) the activity change, negative = toxicity was -3.8% (inactive). For `Cc1cc(NC(=O)c2cc([N+](=O)[O-])cc([N+](=O)[O-])c2C)no1`, the activity change, negative = toxicity was -10.2% (inactive). For `COC(=O)c1ccc(OC(=O)c2cccs2)cc1`, the activity change, negative = toxicity was -10.9% (inactive). In the case of `Cc1cc(C)nc(N(C#N)Cc2ccccc2)n1`, the activity change, negative = toxicity is reported as 2.63% (inactive). For `Cc1cc(C)nc(N(C#N)Cc2cccc([N+](=O)[O-])c2)n1`, the activity change, negative = toxicity was -8.51% (inactive). In the case of `CCOC(=O)c1ccc(-c2ccc(CO)o2)cc1`, the activity change, negative = toxicity is reported as -14.8% (inactive). For `COC(=O)c1ccc(NC(=S)N2CCCC2)cc1`, the activity change, negative = toxicity was 0.525% (inactive). With `C#CCSc1ncc(-c2ccccc2)cn1` the activity change, negative = toxicity was -4.45% (inactive). In the case of `O=[N+]([O-])c1ccc(N2CCCC2)nc1`, the activity change, negative = toxicity is reported as -3.24% (inactive). With `O=C1C=C(c2cc(F)ccc2F)C[C@@H](c2ccc(F)cc2)C1` the activity change, negative = toxicity was -9.01% (inactive). With `CCOC(=O)CCCn1ncn2c(cc3occc32)c1=O` the activity change, negative = toxicity was -0.83% (inactive). In the case of `N#CC(c1ccc(Cl)cc1)c1ccc(Cl)nn1` (centres undefined), the activity change, negative = toxicity is reported as -11% (inactive). In the case of `Cc1cccc(NC(=O)Nc2cc(C)on2)c1`, the activity change, negative = toxicity is reported as -3.2% (inactive). For `COc1ccc(N2CCN(C(=O)c3ccc(Br)o3)CC2)cc1`, the activity change, negative = toxicity was -5.84% (inactive). With `CCOC(=O)CC(C#N)c1cn(C)c2ccccc12` (centres undefined) the activity change, negative = toxicity was -3.91% (inactive). In the case of `O=C(NC1CCCC1)c1cccc(Cl)c1`, the activity change, negative = toxicity is reported as 2.48% (inactive). For `COc1ccc(/C=C/C(=O)c2ccoc2)cc1`, the activity change, negative = toxicity was -17.6% (inactive). In the case of `CC(C)N=C(NC#N)SCc1ccccc1F`, the activity change, negative = toxicity is reported as 0.214% (inactive). In the case of `Cc1ccc2scc(CN3CCCC3)c2c1`, the activity change, negative = toxicity is reported as -3.48% (inactive). With `Cc1cccc(C(C#N)c2ccc(Cl)nn2)c1` (centres undefined) the activity change, negative = toxicity was -0.066% (inactive). In the case of `Cn1cccc1C(=O)OCc1cc(-c2ccco2)on1`, the activity change, negative = toxicity is reported as 0.43% (inactive). In the case of `O=[N+]([O-])c1ccc(-c2cccnc2)cc1`, the activity change, negative = toxicity is reported as -9.26% (inactive). For `CSc1nnc(-c2ccc([N+](=O)[O-])cc2)o1`, the activity change, negative = toxicity was -10.7% (inactive). With `N#CC(c1ccc(Cl)nn1)c1ccc(Cl)cc1Cl` (centres undefined) the activity change, negative = toxicity was -7.39% (inactive). In the case of `Cc1ccc(C(C#N)c2ccc(Cl)nn2)cc1` (centres undefined), the activity change, negative = toxicity is reported as -10.6% (inactive). In the case of `O=CNC1(c2ccccc2)CCCCC1`, the activity change, negative = toxicity is reported as -10.5% (inactive). With `Clc1ccc2scc(CN3CCCCC3)c2c1` the activity change, negative = toxicity was -2.59% (inactive). In the case of `COc1ccc(CNCc2cccc(Cl)c2)cc1`, the activity change, negative = toxicity is reported as 3.92% (inactive). In the case of `COc1ccccc1C(C#N)c1cccc(Cl)n1` (centres undefined), the activity change, negative = toxicity is reported as -0.092% (inactive). With `Cn1cccc1C(C#N)c1ccccc1C#N` (centres undefined) the activity change, negative = toxicity was -10.8% (inactive). In the case of `Cc1ccc(S(=O)(=O)NCCC(C)C)cc1[N+](=O)[O-]`, the activity change, negative = toxicity is reported as -2.87% (inactive). For `O=S1(=O)CCOC[C@H](c2ccccc2)N1Cc1cccc(Cl)c1`, the activity change, negative = toxicity was -9.16% (inactive). In the case of `CC(C)CCNC(=O)c1cccc(Cl)c1`, the activity change, negative = toxicity is reported as -10.7% (inactive). With `O=C(NCC1CC1)c1cc([N+](=O)[O-])cc([N+](=O)[O-])c1` the activity change, negative = toxicity was 5.69% (inactive).
